# Source: ChEMBL document CHEMBL1201862, “PubChem BioAssay data set” (2004)
#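 Cells were grown in 96-well plates and exposed to each compound for 48 hours at five concentrations; endpoints were interpolated linearly between bracketing concentrations, or set to the highest concentration if not reached. GI50: concentration for 50% inhibition of growth.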 Calls of active or inactive are those of the source. No stated cut-off is given here; in the data, active = GI50 up to about 1.1 µM and inactive = higher.
# Key:
# Assay in all cases: NCI-60 cell line screen, 48 h
# [1] = test system: OVCAR-3
# [2] = test system: IGROV-1
# [3] = test system: OVCAR-8
# [4] = test system: RXF 393
# [5] = test system: PC-3
# [6] = test system: NCI-H23
# [7] = test system: MDA-N
# [8] = test system: SK-OV-3
# [9] = test system: MDA-MB-435
# [10] = test system: BT-549
# [11] = test system: MOLT-4
# [12] = test system: DU-145
# [13] = test system: OVCAR-4
# [14] = test system: NCI-H460
# [15] = test system: MDA-MB-231
# [16] = test system: M14
# [17] = test system: HCT-15
# [18] = test system: K562
# [19] = test system: SNB-75
# [20] = test system: COLO 205
# [21] = test system: TK-10
# [22] = test system: T47D
# [23] = test system: HOP-62
# [24] = test system: KM12
# [25] = test system: NCI/ADR-RES
# [26] = test system: OVCAR-5
# [27] = test system: Malme-3M
# [28] = test system: SW-620
# [29] = test system: LOX IMVI
# [30] = test system: UACC-257
# [31] = test system: UO-31
# [32] = test system: SF-295
# [33] = test system: SK-MEL-5
# [34] = test system: Hs-578T
# [35] = test system: MCF7
# [36] = test system: U-251
# [37] = test system: HT-29
# [38] = test system: HCT-116
# [39] = test system: SN12C
# [40] = test system: SK-MEL-28
# [41] = test system: UACC-62
# [42] = test system: SNB-19
# [43] = test system: CAKI-1
# [44] = test system: CCRF-CEM
# [45] = test system: EKVX
# [46] = test system: HL-60
# [47] = test system: RPMI-8226
# [48] = test system: HCC 2998
# [49] = test system: A498
# [50] = test system: NCI-H522
# [51] = test system: SK-MEL-2
# [52] = test system: NCI-H226
# [53] = test system: ACHN
# [54] = test system: SF-539
# [55] = test system: 786-0
# [56] = test system: HOP-92
# [57] = test system: SF-268
# [58] = test system: A549
compound,measurement,setting,value
O=C(NN=C1CCCCC1)NN=C1CCCCC1,GI50,[1],> 100 µM (inactive)
same,GI50,[2],> 100 µM (inactive)
same,GI50,[3],> 100 µM (inactive)
same,GI50,[4],> 100 µM (inactive)
same,GI50,[5],> 100 µM (inactive)
same,GI50,[6],> 100 µM (inactive)
same,GI50,[7],> 100 µM (inactive)
same,GI50,[8],> 100 µM (inactive)
same,GI50,[9],> 100 µM (inactive)
same,GI50,[10],> 100 µM (inactive)
same,GI50,[11],> 100 µM (inactive)
same,GI50,[12],> 100 µM (inactive)
same,GI50,[13],> 100 µM (inactive)
same,GI50,[14],> 100 µM (inactive)
same,GI50,[15],> 100 µM (inactive)
same,GI50,[16],> 100 µM (inactive)
same,GI50,[17],> 100 µM
same,GI50,[18],> 100 µM (inactive)
same,GI50,[19],> 100 µM (inactive)
same,GI50,[20],> 100 µM (inactive)
same,GI50,[21],> 100 µM (inactive)
same,GI50,[22],> 100 µM (inactive)
same,GI50,[23],> 100 µM (inactive)
same,GI50,[24],> 100 µM (inactive)
same,GI50,[25],> 100 µM (inactive)
same,GI50,[26],> 100 µM (inactive)
same,GI50,[27],> 100 µM (inactive)
same,GI50,[28],> 100 µM (inactive)
same,GI50,[29],> 100 µM (inactive)
same,GI50,[30],> 100 µM (inactive)
same,GI50,[31],> 100 µM (inactive)
same,GI50,[32],> 100 µM (inactive)
same,GI50,[33],> 100 µM (inactive)
same,GI50,[34],> 100 µM (inactive)
same,GI50,[35],> 100 µM (inactive)
same,GI50,[36],> 100 µM (inactive)
same,GI50,[37],> 100 µM (inactive)
same,GI50,[38],> 100 µM (inactive)
same,GI50,[39],> 100 µM (inactive)
same,GI50,[40],> 100 µM (inactive)
same,GI50,[41],> 100 µM (inactive)
same,GI50,[42],> 100 µM (inactive)
same,GI50,[43],> 100 µM (inactive)
same,GI50,[44],> 100 µM (inactive)
CCOC(=O)/C(C(=O)NC(C)C)=C(/N)N1CCOCC1,GI50,[1],> 100 µM (inactive)
same,GI50,[2],> 100 µM (inactive)
same,GI50,[3],> 100 µM (inactive)
same,GI50,[4],> 100 µM (inactive)
same,GI50,[5],> 100 µM (inactive)
same,GI50,[6],> 100 µM (inactive)
same,GI50,[45],> 100 µM (inactive)
same,GI50,[7],> 100 µM (inactive)
same,GI50,[8],> 100 µM (inactive)
same,GI50,[46],> 100 µM (inactive)
same,GI50,[47],> 100 µM (inactive)
same,GI50,[48],> 100 µM (inactive)
same,GI50,[49],> 100 µM (inactive)
same,GI50,[9],> 100 µM (inactive)
same,GI50,[10],> 100 µM (inactive)
same,GI50,[11],> 100 µM (inactive)
same,GI50,[12],> 100 µM (inactive)
same,GI50,[50],> 100 µM (inactive)
same,GI50,[13],> 100 µM (inactive)
same,GI50,[51],> 100 µM (inactive)
same,GI50,[14],> 100 µM (inactive)
same,GI50,[15],> 100 µM (inactive)
same,GI50,[16],> 100 µM (inactive)
same,GI50,[17],> 100 µM
same,GI50,[18],> 100 µM (inactive)
same,GI50,[19],> 100 µM (inactive)
same,GI50,[52],> 100 µM (inactive)
same,GI50,[53],> 100 µM (inactive)
same,GI50,[20],> 100 µM (inactive)
same,GI50,[21],> 100 µM (inactive)
same,GI50,[22],> 100 µM (inactive)
same,GI50,[23],> 100 µM (inactive)
same,GI50,[24],> 100 µM (inactive)
same,GI50,[25],> 100 µM (inactive)
same,GI50,[26],> 100 µM (inactive)
same,GI50,[27],> 100 µM (inactive)
same,GI50,[28],> 100 µM (inactive)
same,GI50,[29],> 100 µM (inactive)
same,GI50,[54],> 100 µM (inactive)
same,GI50,[55],> 100 µM (inactive)
same,GI50,[30],> 100 µM (inactive)
same,GI50,[32],> 100 µM (inactive)
same,GI50,[56],> 100 µM (inactive)
same,GI50,[34],> 100 µM (inactive)
same,GI50,[35],> 100 µM (inactive)
same,GI50,[36],> 100 µM (inactive)
same,GI50,[37],> 100 µM (inactive)
same,GI50,[57],> 100 µM (inactive)
same,GI50,[38],> 100 µM (inactive)
same,GI50,[39],> 100 µM (inactive)
same,GI50,[58],> 100 µM (inactive)
same,GI50,[40],> 100 µM (inactive)
same,GI50,[41],> 100 µM (inactive)
same,GI50,[42],> 100 µM (inactive)
same,GI50,[43],> 100 µM (inactive)
same,GI50,[44],> 100 µM (inactive)
Cc1cc2c(cc1Cl)SC(NNC(=O)c1ccco1)=NS2(=O)=O,GI50,[1],> 10 µM (inactive)
same,GI50,[2],> 10 µM (inactive)
same,GI50,[3],> 10 µM (inactive)
same,GI50,[4],> 10 µM (inactive)
same,GI50,[5],> 10 µM (inactive)
same,GI50,[6],> 10 µM (inactive)
same,GI50,[45],> 10 µM (inactive)
same,GI50,[7],> 10 µM (inactive)
same,GI50,[8],> 10 µM (inactive)
same,GI50,[46],> 10 µM (inactive)
same,GI50,[47],> 10 µM (inactive)
same,GI50,[48],> 10 µM (inactive)
same,GI50,[49],> 10 µM (inactive)
same,GI50,[9],> 10 µM (inactive)
same,GI50,[10],> 10 µM (inactive)
same,GI50,[11],> 10 µM (inactive)
same,GI50,[12],> 10 µM (inactive)
same,GI50,[50],> 10 µM (inactive)
same,GI50,[13],> 10 µM (inactive)
same,GI50,[51],> 10 µM (inactive)
same,GI50,[14],> 10 µM (inactive)
same,GI50,[15],> 10 µM (inactive)
same,GI50,[16],> 10 µM (inactive)
same,GI50,[17],> 10 µM
same,GI50,[18],> 10 µM (inactive)
same,GI50,[19],> 10 µM (inactive)
same,GI50,[52],> 10 µM (inactive)
same,GI50,[53],> 10 µM (inactive)
same,GI50,[20],> 10 µM (inactive)
same,GI50,[21],> 10 µM (inactive)
same,GI50,[22],> 10 µM (inactive)
same,GI50,[23],> 10 µM (inactive)
same,GI50,[24],> 10 µM (inactive)
same,GI50,[25],> 10 µM (inactive)
same,GI50,[26],> 10 µM (inactive)
same,GI50,[27],> 10 µM (inactive)
same,GI50,[28],> 10 µM (inactive)
same,GI50,[29],> 10 µM (inactive)
same,GI50,[54],> 10 µM (inactive)
same,GI50,[55],> 10 µM (inactive)
same,GI50,[30],> 10 µM (inactive)
same,GI50,[31],> 10 µM (inactive)
same,GI50,[32],> 10 µM (inactive)
same,GI50,[33],> 10 µM (inactive)
same,GI50,[34],> 10 µM (inactive)
same,GI50,[35],> 10 µM (inactive)
same,GI50,[36],> 10 µM (inactive)
same,GI50,[37],> 10 µM (inactive)
same,GI50,[57],> 10 µM (inactive)
same,GI50,[38],> 10 µM (inactive)
same,GI50,[39],> 10 µM (inactive)
same,GI50,[58],> 10 µM (inactive)
same,GI50,[40],> 10 µM (inactive)
same,GI50,[41],> 10 µM (inactive)
same,GI50,[42],> 10 µM (inactive)
same,GI50,[43],> 10 µM (inactive)
same,GI50,[44],> 10 µM (inactive)
